The record followed here is patent publication US20230062119A1, “USE OF BIOMARKERS IN IDENTIFYING PATIENTS THAT WILL BE RESPONSIVE TO TREATMENT WITH A PRMT5 INHIBITOR” (Merck Sharp & Dohme LLC, priority 2019, published 2023).

The assay addresses T1, Full-length (FL)-PRMT5-MEP50 enzyme complex (Homo sapiens, UniProt O14744).
T1 construct: Full-length (FL)-PRMT5-MEP50 enzyme complex (recombinant proteins from baculovirus-transfected Sf21 cells: FL-PRMT5; MW=73837 kDa and FL-MEP50; MW=38614); made in house; host or cells: baculovirus-transfected Sf21 insect cells
As to the kind of experiment: PRMT5-MEP50 Enzyme Methylation Assay. The format is biochemical. As to conditions: 1.0 nM PRMT5-MEP50, 75 nM biotinylated peptide, 15 μM SAM. The procedure, abridged: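 Compound was pre-incubated 60 min at 37°C with 1.0 nM enzyme and 15 μM SAM (final) in 50 mM Bicine pH 8.0, then 75 nM biotinylated H4R3(Me1) peptide was added and reacted 150 min; twenty-point 1:2 titration from 100000 nM, 1% DMSO. Formic acid quench; SAMDI mass spectrometry measured Me1-to-Me2 conversion, EC50 by 4- or 7-parameter regression.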

Where [1] appears, read: one EC50: 4 parameters single site sigmoidal model, EC50 1: first value of 7 parameters biphasic model, read-out: Enzyme Methylation Assay (EC50 or EC50 1).
The mark [2] stands for this setting: second EC50 of 7 parameters biphasic model, read-out: Enzyme Methylation Assay (EC50 2).

Where two headings read alike, the source gives them in different places.

T1 sequence (O14744 whole entry): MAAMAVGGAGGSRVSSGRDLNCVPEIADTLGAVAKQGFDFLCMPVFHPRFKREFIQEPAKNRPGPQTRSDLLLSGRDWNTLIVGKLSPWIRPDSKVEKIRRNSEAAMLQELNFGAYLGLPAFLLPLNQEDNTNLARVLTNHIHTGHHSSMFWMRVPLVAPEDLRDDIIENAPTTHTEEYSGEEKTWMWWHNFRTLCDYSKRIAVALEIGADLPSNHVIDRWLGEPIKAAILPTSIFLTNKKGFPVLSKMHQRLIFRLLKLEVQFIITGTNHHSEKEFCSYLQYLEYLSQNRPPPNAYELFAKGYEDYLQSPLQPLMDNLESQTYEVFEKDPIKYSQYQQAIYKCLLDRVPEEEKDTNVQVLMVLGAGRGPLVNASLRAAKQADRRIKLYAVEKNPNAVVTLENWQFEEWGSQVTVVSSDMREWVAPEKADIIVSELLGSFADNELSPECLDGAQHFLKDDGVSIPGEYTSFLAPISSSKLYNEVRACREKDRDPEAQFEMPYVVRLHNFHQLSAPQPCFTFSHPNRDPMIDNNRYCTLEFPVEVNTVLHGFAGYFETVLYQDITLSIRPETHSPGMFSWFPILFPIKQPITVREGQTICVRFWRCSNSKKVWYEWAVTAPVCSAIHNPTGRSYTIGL
T1 sequence (Q9BQA1 whole entry partner): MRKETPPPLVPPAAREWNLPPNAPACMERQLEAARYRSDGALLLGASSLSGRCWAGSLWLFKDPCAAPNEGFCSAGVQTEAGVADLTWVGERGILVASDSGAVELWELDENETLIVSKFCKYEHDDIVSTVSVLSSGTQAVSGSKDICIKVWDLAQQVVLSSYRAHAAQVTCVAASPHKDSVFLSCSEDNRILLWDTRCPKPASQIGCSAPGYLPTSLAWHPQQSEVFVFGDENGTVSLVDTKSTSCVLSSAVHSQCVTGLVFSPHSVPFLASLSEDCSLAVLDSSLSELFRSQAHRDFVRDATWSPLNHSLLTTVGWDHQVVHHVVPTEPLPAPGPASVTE

The term EC50 denotes the concentration at which the effect is half-maximal. Regarding `CNc1ncnc2c1ccn2[C@@H]1O[C@@H]2[C@H](Cc3ccc4cc(Br)c(N)nc4c3)CC[C@]2(O)[C@H]1O` [Example 92, (2R,3R,3aS,6S,6aR)-6-((2-amino-3-bromoquinolin-7-yl)methyl)-2-(4-(methylamino)-7H-pyrrolo[2,3-d]pyrimidin-7-yl)hexahydro-3aH-cyclopenta[b]furan-3,3a-diol], the EC50 under setting [1] is 0.5 nM.
Regarding `CNc1ncnc2c1ccn2[C@@H]1C[C@H](COc2ccc3cc(Br)c(N)nc3c2)[C@@](C)(O)[C@H]1O` [Example 93, (1R,2S,3R,5R)-5-(((2-amino-3-bromoquinolin-7-yl)oxy)methyl)-1-methyl-3-(4-(methylamino)-7H-pyrrolo[2,3-d]pyrimidin-7-yl)cyclopentane-1,2-diol], the EC50 reads like this: under setting [1], 0.5 nM; under setting [2], 110 nM.
Regarding `CNc1ncnc2c1ccn2[C@@H]1O[C@@H]2[C@@H](Oc3ccc4cc(Br)c(N)nc4c3)CC[C@]2(O)[C@H]1O` [Example 94, (2R,3R,3aS,6S,6aR)-6-((2-amino-3-bromoquinolin-7-yl)oxy)-2-(4-(methylamino)-7H-pyrrolo[2,3-d]pyrimidin-7-yl)hexahydro-3aH-cyclopenta[b]furan-3,3a-diol], the EC50 under setting [1] was 0.8 nM.
Same read-out and setting: under `CNc1ncnc2c1ccn2[C@@H]1O[C@@H]2[C@H](Cc3ccc4cc(F)c(N)nc4c3)CC[C@]2(O)[C@H]1O` [Example 95, (2R,3R,3aS,6S,6aR)-6-((2-amino-3-fluoroquinolin-7-yl)methyl)-2-(4-(methylamino)-7H-pyrrolo[2,3-d]pyrimidin-7-yl)hexahydro-3aH-cyclopenta[b]furan-3,3a-diol] stands 2.8 nM; under `CNc1ncnc2c1c(F)cn2[C@@H]1O[C@@H]2[C@H](Cc3ccc4cc(Br)c(N)nc4c3)CC[C@]2(O)[C@H]1O` [Example 96, (2R,3R,3aS,6S,6aR)-6-((2-amino-3-bromoquinolin-7-yl)methyl)-2-(5-fluoro-4-(methylamino)-7H-pyrrolo[2,3-d]pyrimidin-7-yl)hexahydro-3aH-cyclopenta[b]furan-3,3a-diol], 0.8 nM; under `CNc1ncnc2c1ccn2[C@@H]1C[C@@H]2[C@H](Cc3ccc4cc(Br)c(N)nc4c3)CC[C@]2(O)[C@H]1O` [Example 97, (1S,2R,3aR,4S,6aR)-4-((2-amino-3-bromoquinolin-7-yl)methyl)-2-(4-(methylamino)-7H-pyrrolo[2,3-d]pyrimidin-7-yl)hexahydropentalene-1,6a(1H)-diol], 0.4 nM.
For the compound `C[C@]1(COc2ccc3cccnc3c2)O[C@@H](n2ccc3c(N)ncnc32)[C@H](O)[C@@H]1O` [Example 98, (2R,3S,4R,5R)-5-(4-amino-7H-pyrrolo[2,3-d]pyrimidin-7-yl)-2-methyl-2-((quinolin-7-yloxy)methyl)tetrahydrofuran-3,4-diol], the EC50 amounted to 3.4 nM under setting [1] and 2570 nM under setting [2].
Regarding `C[C@@]1(O)[C@@H](COc2ccc3cccnc3c2)O[C@@H](n2ccc3c(N)ncnc32)[C@@H]1O` [Example 99, (2R,3S,4R,5R)-5-(4-amino-7H-pyrrolo[2,3-d]pyrimidin-7-yl)-3-methyl-2-((quinolin-7-yloxy)methyl)tetrahydrofuran-3,4-diol], the EC50 under setting [1] stood at 1.7 nM and the EC50 under setting [2] worked out at 1880 nM.
For `C[C@]1(COc2ccc3cc(Br)c(N)nc3c2)C[C@@H](n2ccc3c(N)ncnc32)[C@H](O)[C@@H]1O` [Example 100, (1S,2R,3R,5R)-3-(((2-amino-3-bromoquinolin-7-yl)oxy)methyl)-5-(4-amino-7H-pyrrolo[2,3-d]pyrimidin-7-yl)-3-methylcyclopentane-1,2-diol], in that order: 0.6 nM and 32 nM.
`C[C@]1(COc2ccc3ccc(N)nc3c2)C[C@@H](n2ccc3c(N)ncnc32)[C@H](O)[C@@H]1O` [Example 101, (1S,2R,3R,5R)-5-(4-amino-7H-pyrrolo[2,3-d]pyrimidin-7-yl)-3-(((2-aminoquinolin-7-yl)oxy)methyl)-3-methylcyclopentane-1,2-diol]: the EC50 under setting [1] turned out to be 0.3 nM.
